Consider one molecule from article PMC6143478, “Lipophilic activated ester prodrug approach for drug delivery to the intestinal lymphatic system” (Journal of Controlled Release, 2018).

A short description of series [1]: Plasma pharmacokinetics following intravenous administration in rats. The series is classed as in vivo. To be noted: i.v., dose equivalent to 2.5 mg/kg BEX, rat; in words. The procedure:
The protocols for pharmacokinetic and biodistribution experiments in this study were reviewed and approved by the University of Nottingham Ethical Review Committee in accordance with the Animals [Scientific Procedures] Act 1986. Male Sprague Dawley rats (Charles River Laboratories, UK) weighing 350–380 g were used. The animals were housed in the Bio Support Unit, University of Nottingham. Continuous lymph collection was performed according to a protocol approved by the Institutional Animal Care and Use Committee at Rutgers, The State University of New Jersey. Male Sprague Dawley rats (Envigo, Inc., NJ, USA) weighing 300–350 g were used for the continuous lymph collection. […]
Jugular vein cannulation surgery procedures were conducted under general anaesthesia for blood sampling. […] Blood samples of 250 μL volume were collected from the cannula at pre-determined time points following administration. […]
The HPLC-UV system consisting of a separation module (Waters Alliance 2695) equipped with a UV detector (Waters 996) was used for analysis. […] BEX and its prodrugs were detected at 259 nm and RA and its prodrugs at 357 nm.
Assessment of statistical significance of differences between two groups was conducted by means of two-tailed unpaired t-test. Statistical significance among three or more groups was assessed by means of a one-way ANOVA followed by Tukey's multiple comparisons test. […]

Series [2] is described as follows: Prodrug conversion assay in rat plasma. The series is classed as in vitro ADME. The procedure: The prodrugs were tested for their stability and conversion into their corresponding active drug using fasted state simulated intestinal fluid (FaSSIF) with added esterase enzyme activity (20 IU/mL), rat plasma, and postprandial rat lymph. The FaSSIF was prepared as previously described in the literature. The medium was pre-heated to 37 °C prior to the assay for 5 min. The experiment was initiated by spiking stock solutions of prodrugs to give a final concentration of 10 μM of the prodrugs in the medium. When the stability of the artificial emulsion-associated prodrugs was tested in plasma, the association of compounds with artificial emulsion was performed prior to stability experiments and the concentrations of the compounds in the associated emulsion were measured. The emulsion was then spiked to give a concentration of 10 μM of the prodrugs in plasma. The reaction mixtures were incubated at 37 °C and shaken at 200 rpm on a temperature-controlled orbital shaker (Thermo Scientific MaxQ4000, Waltham, MA, USA) for 4 h. Samples were withdrawn at pre-determined time points, and the reaction was terminated by addition of acetonitrile. The samples were then subjected to sample preparation and analysis as described below. The natural log percentage of the prodrug concentration was plotted against incubation time, and the slope (k) was obtained from the plot. Half-life of active drug release (t1/2) was calculated by the following equation: t1/2 = −0.693/k. All experiments were conducted in triplicate.

Usually half-life stands for the time in which the quantity being followed falls by half. With `C=C(c1ccc(C(=O)OCC)cc1)c1cc2c(cc1C)C(C)(C)CCC2(C)C` [prodrug 2], the “conversion of prodrug to BEX in plasma in vivo” value in series [1] is listed as “rapidly converted to BEX”. In addition, in series [2] (prodrug incorporated into Intralipid lipid particles, 10 μM, relative to free form), the “conversion of emulsion-associated form of prodrug in rat plasma” value is reported as “delayed conversion”. Besides, the half-life at 10 μM in series [2] (rat, plasma, in vitro, 37 °C, free form, read-out: half-life of active drug release in rat plasma) was 20 min.
